As a reminder, the IC50 is the concentration that gives 50% inhibition.

The structures appear in SMILES notation.

human plasma kallikrein, sequence (P03952 391-638): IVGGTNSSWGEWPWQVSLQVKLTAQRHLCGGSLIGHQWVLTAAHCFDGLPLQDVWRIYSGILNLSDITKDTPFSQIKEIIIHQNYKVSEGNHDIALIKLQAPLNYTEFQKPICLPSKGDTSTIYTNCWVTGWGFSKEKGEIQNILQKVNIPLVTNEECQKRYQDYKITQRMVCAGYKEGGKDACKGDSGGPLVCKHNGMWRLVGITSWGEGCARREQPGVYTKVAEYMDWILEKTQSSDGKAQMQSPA
human plasma kallikrein, sequence (P03952 20-390 partner): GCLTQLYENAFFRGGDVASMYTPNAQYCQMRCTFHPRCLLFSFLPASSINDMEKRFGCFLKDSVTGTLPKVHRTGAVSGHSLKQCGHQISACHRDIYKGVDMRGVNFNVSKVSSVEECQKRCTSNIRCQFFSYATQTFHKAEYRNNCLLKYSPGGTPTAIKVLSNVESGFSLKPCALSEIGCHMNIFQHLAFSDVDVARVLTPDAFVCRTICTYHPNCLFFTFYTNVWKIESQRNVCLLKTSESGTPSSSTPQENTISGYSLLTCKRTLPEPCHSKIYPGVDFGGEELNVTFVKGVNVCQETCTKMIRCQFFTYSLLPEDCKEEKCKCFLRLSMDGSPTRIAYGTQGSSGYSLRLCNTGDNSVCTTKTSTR

This assay concerns the target human plasma kallikrein (Homo sapiens (Human), UniProt P03952). The assay can be described thus: In vitro enzyme inhibition of human plasma kallikrein (PFR-AMC cleavage). Particulars: Pro-Phe-Arg-AMC substrate, 37° C., read-out: hPK IC50. It counts as biochemical. The procedure: The ability of the compounds disclosed herein to inhibit human plasma kallikrein activity was quantified according to the procedures below.
A 10 mM solution of the test compound was made in DMSO. […] A control tube containing only DMSO is included. 16 μL of each compound test solution was combined with 384 μL of assay buffer (50 mM Tris-HCl pH 7.5, 150 mM NaCl, 0.01% Triton X-100) to yield a “4× test compound buffer stock”.
These solutions are hereby referred to as 4× hPK and 2×PFR-AMC, respectively.
50 μL was removed from this mixture and placed into duplicate wells on a Microfluor 1Black U-bottom microtiter plate (Thermo Scientific). This plate was incubated for 5 minutes at 37° C. To each well, 50 μL of pre-warmed 2×PFR-AMC was added to start the enzymatic reaction. Cleavage of PFR-AMC was monitored in a Biotek Synergy H4 reader set at 37° C. Readings are taken every 43 seconds for 1 hour. […] The IC50 is calculated using the Gen5 (Biotek Instruments).
The ability of the compounds in Table 3 to inhibit human plasma kallikrein activity was determined.
Regarding `CCc1cnc2ccc(Cc3cc(C(=O)NCc4cnc5[nH]cc(Cl)c5c4)ccn3)cc2c1` [Example 281, N-((3-chloro-1H-pyrrolo[2,3-b]pyridin-5-yl)methyl)-2-((3-ethylquinolin-6-yl)methyl)isonicotinamide], the IC50 was less than 100 nM. The same measure for `Cc1cnc2c(C(C)(C)O)cc(Cc3cc(C(=O)NCc4cc5c(Cl)c[nH]c5cc4F)ccn3)cc2c1` [Example 314, N-((3-chloro-6-fluoro-1H-indol-5-yl)methyl)-2-((8-(2-hydroxypropan-2-yl)-3-methylquinolin-6-yl)methyl)isonicotinamide]: less than 100 nM; for `O=C(NCc1cc2c(Cl)c[nH]c2cc1F)c1ccnc(Cc2ccc3ncc(N4CCNCC4)cc3c2)c1` [Example 313, N-((3-chloro-6-fluoro-1H-indol-5-yl)methyl)-2-((3-(piperazin-1-yl)quinolin-6-yl)methyl)isonicotinamide]: 1000 to 10000 nM; for `Cc1cc(C(C)(C)O)nc(C)c1CNC(=O)c1ccnc(Cc2ccc3ncc(C(F)(F)F)cc3c2)c1` [Example 174, N-((6-(2-hydroxypropan-2-yl)-2,4-dimethylpyridin-3-yl)methyl)-2-((3-(trifluoromethyl)quinolin-6-yl)methyl)isonicotinamide]: greater than 10000 nM. In the case of `Cc1cc(N)nc(C)c1CNC(=O)c1ccnc(Cc2cc3cc(C(F)(F)F)ccc3[nH]2)c1` [Example 151, N-((6-amino-2,4-dimethylpyridin-3-yl)methyl)-2-((5-(trifluoromethyl)-1H-indol-2-yl)methyl)isonicotinamide] it was 100 to 1000 nM; in that of `Cc1nc(N)ccc1CNC(=O)c1cc(Cc2cnc3ncc(Cl)cc3c2)ncc1C#N` [Example 216, N-((6-amino-2-methylpyridin-3-yl)methyl)-2-((6-chloro-1,8-naphthyridin-3-yl)methyl)-5-cyanoisonicotinamide], 100 to 1000 nM. With `Cc1cc(N)nc(C)c1CNC(=O)c1cc(Cc2ccc3ncc(Cl)cc3c2)nc(-c2n[nH]c(=O)[nH]2)c1` [Example 196, N-((6-amino-2,4-dimethylpyridin-3-yl)methyl)-2-((3-chloroquinolin-6-yl)methyl)-6-(5-oxo-4,5-dihydro-1H-1,2,4-triazol-3-yl)isonicotinamide], the IC50 was less than 100 nM. The same measure for `O=C(NCc1ccc2[nH]cc(Cl)c2c1F)c1ccnc(Cc2ccc3ncc(N4CCCCC4)cc3c2)c1` [Example 305, N-((3-chloro-4-fluoro-1H-indol-5-yl)methyl)-2-((3-(piperidin-1-yl)quinolin-6-yl)methyl)isonicotinamide]: greater than 10000 nM; for `Cc1nc(N)ccc1CNC(=O)c1ccnc(Cc2cnc3ncc(Cl)cc3c2)c1` [Example 205, N-((6-amino-2-methylpyridin-3-yl)methyl)-2-((6-chloro-1,8-naphthyridin-3-yl)methyl)isonicotinamide]: less than 100 nM; for `CC1=CC2C=NN(Cc3cc(C(=O)NCc4c(C)cc(N)nc4C)ccn3)C2C=C1` (stereo not shown) [Example 201, N-((6-amino-2,4-dimethylpyridin-3-yl)methyl)-2-((5-methyl-3a,7a-dihydro-1H-indazol-1-yl)methyl)isonicotinamide]: less than 100 nM. In the case of `Nc1cnc2ccc(Cc3cc(C(=O)NCc4cc5c(Cl)c[nH]c5cc4F)ccn3)cc2c1` [Example 297, 2-((3-aminoquinolin-6-yl)methyl)-N-((3-chloro-6-fluoro-1H-indol-5-yl)methyl)isonicotinamide] it was 100 to 1000 nM; in that of `Cc1ccn2c(C(F)(F)F)nc(CNC(=O)c3ccnc(Cc4ccc5ncc(Cl)cc5c4)c3)c2c1` [Example 160, 2-((3-chloroquinolin-6-yl)methyl)-N-((7-methyl-3-(trifluoromethyl)imidazo[1,5-a]pyridin-1-yl)methyl)isonicotinamide], greater than 10000 nM; in that of `Cc1nc(N)ccc1CNC(=O)c1ccnc(Cc2ccc3ncc(C(N)=O)cc3c2)c1` [Example 251, 6-((4-(((6-amino-2-methylpyridin-3-yl)methyl)carbamoyl)pyridin-2-yl)methyl)quinoline-3-carboxamide], 1000 to 10000 nM. In the case of `Nc1ncc2cc(CNC(=O)c3ccnc(Cc4ccc5ncc(Cl)cc5c4)c3)ccn12` [Example 187, N-((3-aminoimidazo[1,5-a]pyridin-7-yl)methyl)-2-((3-chloroquinolin-6-yl)methyl)isonicotinamide] it was 100 to 1000 nM; in that of `O=C(NCc1cnc2ncc(Cl)cn12)c1ccnc(Cc2ccc3ncc(Cl)cc3c2)c1` [Example 256, N-((6-chloroimidazo[1,2-a]pyrimidin-3-yl)methyl)-2-((3-chloroquinolin-6-yl)methyl)isonicotinamide], greater than 10000 nM; in that of `O=C(NCc1ccc2cnc(C(F)(F)F)n2c1)c1ccnc(Cc2ccc3ncc(Cl)cc3c2)c1` [Example 185, 2-((3-chloroquinolin-6-yl)methyl)-N-((3-(trifluoromethyl)imidazo[1,5-a]pyridin-6-yl)methyl)isonicotinamide], greater than 10000 nM.

Turning to `O=C(NCc1cnc2[nH]cc(Cl)c2c1)c1ccnc(Cc2ccc3ncc(N4CCCCC4)cc3c2)c1` [Example 306, N-((3-chloro-1H-pyrrolo[2,3-b]pyridin-5-yl)methyl)-2-((3-(piperidin-1-yl)quinolin-6-yl)methyl)isonicotinamide], the IC50 is 1000 to 10000 nM. As to `Cc1nc(N)cc(C#N)c1CNC(=O)c1ccnc(Cc2ccc3ncc(Cl)cc3c2)c1` [Example 167, N-((6-amino-4-cyano-2-methylpyridin-3-yl)methyl)-2-((3-chloroquinolin-6-yl)methyl)isonicotinamide], the IC50 is greater than 10000 nM.

Take `O=C(NCc1cnc2ccc(Cl)cn12)c1ccnc(Cc2ccc3ncc(Cl)cc3c2)c1` [Example 157, N-((6-chloroimidazo[1,2-a]pyridin-3-yl)methyl)-2-((3-chloroquinolin-6-yl)methyl)isonicotinamide]: the IC50 is greater than 10000 nM. The same measure for `Cc1cc(N)nc(C)c1CNC(=O)c1ccnc(Cc2ccc3ncc(CO)cc3c2)c1` [Example 257, N-((6-amino-2,4-dimethylpyridin-3-yl)methyl)-2-((3-(hydroxymethyl)quinolin-6-yl)methyl)isonicotinamide]: less than 100 nM. The same measure for `Cc1ccn2c(C)nc(CNC(=O)c3ccnc(Cc4ccc5ncc(C(F)(F)F)cc5c4)c3)c2c1` [Example 159, N-((3,7-dimethylimidazo[1,5-a]pyridin-1-yl)methyl)-2-((3-(trifluoromethyl)quinolin-6-yl)methyl)isonicotinamide]: 100 to 1000 nM; for `O=C(NCc1ccc2ncc(Cl)cn12)c1ccnc(Cc2ccc3ncc(Cl)cc3c2)c1` [Example 206, N-((3-chloropyrrolo[1,2-a]pyrimidin-6-yl)methyl)-2-((3-chloroquinolin-6-yl)methyl)isonicotinamide]: greater than 10000 nM; for `Cc1n[nH]c2ncc(CNC(=O)c3ccnc(Cc4ccc5ncc(Cl)cc5c4)c3)cc12` [Example 266, 2-((3-chloroquinolin-6-yl)methyl)-N-((3-methyl-1H-pyrazolo[3,4-b]pyridin-5-yl)methyl)isonicotinamide]: 1000 to 10000 nM.

Take `O=C(NCc1ccc2[nH]nc(C(F)(F)F)c2c1)c1ccnc(Cc2ccc3ncc(Cl)cc3c2)c1` [Example 267, 2-((3-chloroquinolin-6-yl)methyl)-N-((3-(trifluoromethyl)-1H-indazol-5-yl)methyl)isonicotinamide]: the IC50 was 1000 to 10000 nM. The same measure for `Nc1nccc2cc(CNC(=O)c3ccnc(Cc4ccc5ncc(N6CCOCC6)cc5c4)c3)ccc12` [Example 293, N-((1-aminoisoquinolin-6-yl)methyl)-2-((3-morpholinoquinolin-6-yl)methyl)isonicotinamide]: 1000 to 10000 nM. With `Cc1nc(N)ccc1CNC(=O)c1ccnc(Cc2ccc3ncc(C(C)O)cc3c2)c1` (stereo not shown) [Example 263, N-((6-amino-2-methylpyridin-3-yl)methyl)-2-((3-(1-hydroxyethyl)quinolin-6-yl)methyl)isonicotinamide], the IC50 fell in the range of 100 to 1000 nM. In the case of `Cc1cnc2c(C(C)(C)O)cc(Cc3cc(C(=O)NCc4n[nH]c5ccc(Cl)cc45)ccn3)cc2c1` [Example 317, N-((5-chloro-1H-indazol-3-yl)methyl)-2-((8-(2-hydroxypropan-2-yl)-3-methylquinolin-6-yl)methyl)isonicotinamide] it was less than 100 nM; in that of `COC(c1ccc2ncc(Cl)cc2c1)c1cc(C(=O)NCc2c(C)cc(N)nc2C)ccn1` (stereo not shown) [Example 296, N-((6-amino-2,4-dimethylpyridin-3-yl)methyl)-2-((3-chloroquinolin-6-yl)(methoxy)methyl)isonicotinamide], less than 100 nM. In the case of `O=C(NCc1n[nH]c2ccc(Cl)cc12)c1ccnc(Cc2ccc3ncc(N4CCCC4)cc3c2)c1` [Example 309, N-((5-chloro-1H-indazol-3-yl)methyl)-2-((3-(pyrrolidin-1-yl)quinolin-6-yl)methyl)isonicotinamide] it was 100 to 1000 nM; in that of `O=C(NCc1ccc2[nH]cc(Cl)c2c1F)c1ccnc(Cc2ccc3ncc(N4CCCC4)cc3c2)c1` [Example 311, N-((3-chloro-4-fluoro-1H-indol-5-yl)methyl)-2-((3-(pyrrolidin-1-yl)quinolin-6-yl)methyl)isonicotinamide], 100 to 1000 nM. The same measure for `Cc1nc(N)ccc1CNC(=O)c1ccnc(Cc2cc(N)c3ncc(Cl)cc3c2)c1` [Example 218, N-((6-amino-2-methylpyridin-3-yl)methyl)-2-((8-amino-3-chloroquinolin-6-yl)methyl)isonicotinamide]: less than 100 nM.
